Experimental data taken from patent US12103952B2, “Methods for expressing proteins in axons” (Cornell University, priority 2010, dated 2024).

Test system: DRG axons
Assay: IRES-driven myr-dEGFP Sindbis reporter in compartmented cultures with translation inhibitors
Type: cell-based, rat
Conditions: added for 48 hrs to the axonal compartment
Description: FIGS. 1A-O are data showing that the compartmentalization of DRGs enables axon-specific manipulations and quantitative measurement using fluorescent probes. (A) Immunofluorescence analysis of 3 DIV DRG cultures+/−5-FdU. […] Scale bar, 50 μm. […] Scale bar, 50 μm. (C) Immunofluorescence analysis of compartmented cultures (montage micrographs). Retrogradely labeled (WGA-Alexa555, red) DRG axons fasciculate and grow under the 1 mm divider into the axon compartment. Axons defasciculate as they enter the axon compartment. Cell bodies (DAPI, blue) are restricted to the cell body compartment. Only WGA-Alexa555 labeled cell bodies are included in data sets, as they comprise the population of neurons extending axons across the divider. (D) Dissociated DRG neurons (5 DIV) in compartmented cultures were treated with NGF in either or both compartments. […] Numbers on bars represent n cells per condition. (E, F) DRG axons in compartmented cultures were infected with a Sindbis virus encoding myr-dEGFP under the control of an IRES by applying the virus to both cell body and axonal compartments. […] All compartments were maintained in identical NGF-containing media throughout the course of the experiment. […] Incomplete abolishment of FISH signals, relative to siRNA-treated axons, reflects residual alternatively-spliced CREBβ transcripts in these hypomorphic animals (Blendy et al., EMBO Journal 15, 1098-1106 (1996)). Additionally, axonal mRNAs are trafficked as mRNA-ribosome complexes, and impaired CREBβ mRNA-ribosome interactions due to the poor Kozak site (Blendy et al., EMBO Journal 15, 1098-1106 (1996)) in this transcript may lead to inefficient trafficking. Scale bar, 10 μm. (H) Quantification of data in (G). *p<0.0001. Numbers on bars represent n axons per condition. (I) Similar to the experiment in FIG. 4A, except equivalent numbers of cell bodies and axon terminals were used for Western blotting. DRG explants were cultured in Boyden chambers, and the upper compartment was incubated in 0 ng/ml NGF. The lower compartment was incubated in either 0 ng/ml NGF or 100 ng/ml NGF for 3 hours. Axon lysates (˜10^4 cells) were prepared from the underside of the membrane and analysed by Western blot. As in FIG. 4A, only CREB was detected in axons, and CREB localization in […] axons was dependent on NGF in the culture media. (J) DRG cultures were transfected with CREB siRNA and CREB levels were detected using a CREB antibody. […] Scale bar, 20 μm. (K) Quantification of data in (J). *p<0.001. Numbers on bars represent n axons per condition. (L) E15 DRG neuronal lysate (10 μg) was subjected to immunoblotting with the CST-9192 CREB antibody. (M) CREB was detected by immunofluorescence using CREB antibody sc-186 (see I, FIG. 4A, and Table S4). Scale bar 10 μm. […] (0) Quantification of data in (M). *p<0.0001. […]

Structure (SMILES)	myr-EGFP fluorescence in the axonal compartment	myr-EGFP levels in the cell body compartment
COc1ccc(C[C@H]2NC[C@H](O)[C@H]2OC(C)=O)cc1 [anisomycin]	loss of myr-EGFP fluorescence	no significant effect
C[C@@H]1C[C@@H]([C@H](O)CC2CC(=O)NC(=O)C2)C(=O)[C@@H](C)C1 [cycloheximide]	loss of myr-EGFP fluorescence	no significant effect
